Marks after values point to notes of the source that are not given here.
Tests used:
[1] = Liver microsome protein binding, rat; assay type: in vitro ADME; conditions: liver microsomes, pH 7.4
[2] = Plasma protein binding (rapid equilibrium dialysis), mouse; assay type: in vitro ADME; conditions: pH 7.4
Method: (§3) After incubation for 20 min, a portion of the whole blood was centrifuged at 2500× g for 10 min at 4 °C to separate plasma; another portion of the whole blood was subjected to three cycles of freeze–thawing and ultrasonicated for 10 min to disrupt cells. Equal volumes of plasma and whole blood samples were added to the whole blood and plasma specimens, respectively, followed by protein precipitation with acetonitrile containing an internal standard (IS). […] The RED inserts were placed in the matching incubation plate: 200 µL of drug-containing matrix were added to the sample chamber, and 400 µL of PBS buffer (pH: 7.4) were added to the buffer chamber. After incubation in a constant-temperature shaking incubator for 6 h (37 °C), samples from the sample chamber and buffer chamber were diluted 1:1 with PBS or matrix, respectively, and proteins were precipitated with acetonitrile containing IS.

[3] = Plasma protein binding (rapid equilibrium dialysis), rat; assay type: in vitro ADME; conditions: plasma, pH 7.4
Method: as §3

[4] = Liver microsome protein binding, human; assay type: in vitro ADME; conditions: liver microsomes, pH 7.4
Method: as §3

[5] = Brain tissue protein binding, rat; assay type: in vitro ADME; conditions: pH 7.4
Method: as §3

[6] = Liver microsome protein binding, dog; assay type: in vitro ADME; conditions: beagle, liver microsomes, pH 7.4
Method: as §3

[7] = test system: CYP1A2-mediated metabolism of MT; experiment: Static DDI model prediction of CBD's impact on MT exposure, beagle; parameters: species or system beagle dog; conditions: input of static DDI model
From the text: (§1) (AUC when co-administered with the inhibitor) to AUC[contr] (AUC without the inhibitor).

[8] = Pharmacokinetics of MT, 6-HMT and CBD in beagles after oral administration; conditions: male, beagle, dog, in vivo, po, 3 mg/kg, p.o.; for AUC(0-t) / AUC(0-inf) / Cmax / MRT last / Tmax: beagles; for MRT last: MRT(0–t); for half-life: t1/2, beagles
Method: Twelve male healthy adult beagles (weighing 10 ± 2 kg) were randomly divided into two groups. […] The drugs were dissolved in a physiological saline solution containing 5% castor oil, with an administration volume of 2 mL/kg. Blood samples were collected at the time points of pre-administration and 0.083, 0.25, 0.5, 0.75, 1, 1.5, 2, 4, 6, 8, and 12 h post-administration.
(§2) The column temperature was set at 40 °C.

[9] = biological target: T1, PEPT1 (Homo sapiens, UniProt P46059); experiment: Uptake and uptake inhibition in MDCK/hPEPT1 cell model; assay type: cell-based; conditions: 4 °C and 37 °C
T1 construct: host or cells: MDCK
T1 sequence (P46059 1-708): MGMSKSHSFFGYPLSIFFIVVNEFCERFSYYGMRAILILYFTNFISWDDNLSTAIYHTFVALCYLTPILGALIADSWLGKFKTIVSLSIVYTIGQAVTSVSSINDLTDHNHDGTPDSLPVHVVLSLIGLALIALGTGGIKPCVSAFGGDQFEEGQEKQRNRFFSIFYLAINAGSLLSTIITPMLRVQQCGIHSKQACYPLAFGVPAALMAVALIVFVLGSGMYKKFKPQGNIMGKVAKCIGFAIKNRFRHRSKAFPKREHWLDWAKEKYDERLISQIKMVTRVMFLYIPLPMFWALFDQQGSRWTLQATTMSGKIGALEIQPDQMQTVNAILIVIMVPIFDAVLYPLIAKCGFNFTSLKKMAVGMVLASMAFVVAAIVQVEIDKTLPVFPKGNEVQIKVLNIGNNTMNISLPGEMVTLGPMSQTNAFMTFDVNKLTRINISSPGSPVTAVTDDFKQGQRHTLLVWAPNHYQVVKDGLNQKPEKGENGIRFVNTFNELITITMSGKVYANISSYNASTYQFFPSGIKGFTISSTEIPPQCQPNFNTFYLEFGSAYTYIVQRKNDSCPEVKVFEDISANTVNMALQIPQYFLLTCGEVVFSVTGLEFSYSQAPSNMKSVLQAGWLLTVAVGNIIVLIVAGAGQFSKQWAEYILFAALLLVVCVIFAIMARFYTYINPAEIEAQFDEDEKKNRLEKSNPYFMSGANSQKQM
Method: MDCK-PEPT1 cells were seeded into 24-well plates at a density of approximately 5 × 10^5 cells per well. When the cell confluency reached 60–70%, the culture medium was aspirated, and the cells were rinsed twice with HBSS pre-warmed to 37 °C. […] After incubation at 37 °C for 10 min, the buffer was aspirated, and ice-cold HBSS was immediately added to terminate the reaction, followed by rinsing three times. After drying the residual liquid, 200 μL of pure water were added to each well, and the cells were lysed by repeated freezing–thawing in liquid nitrogen three times. The cell lysates were collected, and the protein content was determined by the BCA method.
Cell uptake assessment: The concentration of the analyte in cells was corrected using the protein concentration of the cell lysate in each well.(4) Conclysate=Concdrug/ConcProtein
The uptake rate (U, pmol/mg/min) of the compound was calculated following Formula (5).(5) U=Clysate/P×t where Clysate is the amount of drug in the cell lysate (ng); P is cellular protein content (mg); t is incubation time (min).
The uptake ratio of the compound was calculated following Formula (6)(6) UR=U/ UMOCK where UMOCK is the uptake rate in MOCK-MDCK cells (pmol/mg/min).
The inhibition ratio was calculated following Formula (7)(7) IR=(1−Uwith inhibitor−Umock with inhibitor/Uwithout inhibitor−Umock without inhibitor)×100%

[10] = Plasma protein binding (rapid equilibrium dialysis), human; assay type: in vitro ADME; conditions: pH 7.4, read-out: Plasma Protein Binding (converted)
Method: as §3

[11] = Pharmacokinetics of MT, 6-HMT and CBD in SD rats (i.v. and oral); conditions: for MRT last: MRT(0–t)
Method: The drugs were dissolved in the same manner as described previously, with an administration volume of 5 mL/kg for all groups. Blood samples were collected at the time points of pre-administration and 0.033 (only for the intravenous administration group), 0.083, 0.25, 0.5, 0.75, 1, 1.5, 2, 4, 6, 8, and 12 h post-administration.
as §2

[12] = Pharmacokinetics of MT and CBD in rats after pre-administration of ABT
Method: Twelve SD rats were randomly divided into two groups. Both groups were first given an intragastric administration of 1-aminobenzotriazole (ABT) at a dose of 200 mg/kg. […] The administration volume for all groups was 5 mL/kg. […] Approximately 50 μL of venous blood were collected into heparin sodium anticoagulant tubes and placed on ice. The sample processing and storage methods were the same as described previously.
Subsequently, the resultant mixture was vortexed for 1 minute and centrifuged at 4 °C for 10 min at 18,800× g. […] The lowest limit of quantification (LLOQ) was established at 2 ng/mL.
Kromasil 100-5-C8 (2.1 × 50 mm) was selected for the separation of samples. The mobile phase consisted of solvent A (water with 0.1% formic acid and 5 mM ammonium acetate) and solvent B (methanol with 0.1% formic acid). […] The column temperature was set at 40 °C. The two eluents were 0.1% formic acid and 5 mM ammonium acetate in water (A) and 0.1% formic acid in methanol (B). […] The main mass spectrometry detection parameters were: dry gas 10 L/min, heated gas 10 L/min, collision gas 270 kPa, ion source temperature 300 °C, desolvation temperature 250 °C, and heating module temperature 400 °C.
Pharmacokinetic parameters: GraphPad Prism 10.1 software was utilized to draw the curves. Noncompartmental analysis was selected to calculate the major PK parameters, including clearance (CL), volume (V), half-life (t1/2), peak concentration (Cmax), and area under the curve (AUC), using WinNonlin 8.1.

[13] = test system: CYP1A2-mediated metabolism of MT; experiment: Static DDI model prediction of CBD's impact on MT exposure, rat; conditions: input of static DDI model
From the text: as §1

[14] = Plasma protein binding (rapid equilibrium dialysis), dog; conditions: beagle, dog, plasma, pH 7.4
Method: as §3

[15] = male, Sprague-Dawley, rat, in vivo, po, 5 mg/kg, rats, p.o., MT + CBD (5 + 5) mg/kg
[16] = male, Sprague-Dawley, rat, in vivo, po, 5 mg/kg, rats, p.o., MT + CBD (5 + 20) mg/kg
[17] = male, Sprague-Dawley, rat, in vivo, po, 5 mg/kg, rats, p.o., MT + Vehicle 5 mg/kg
[18] = Sprague-Dawley, rat, in vivo, po, 5 mg/kg

SMILES: COc1ccc2[nH]cc(CCNC(C)=O)c2c1 [MT, Melatonin]
- fraction unbound at 6 h [1]: 0.972
- fraction unbound at 6 h [2]: 0.451
- fraction unbound at 6 h [3]: 0.425
- fraction unbound at 6 h [4]: 0.979
- fraction unbound at 6 h [5]: 0.315
- fraction unbound at 6 h [6]: 0.78
- fm(CYP1A2), proportion of MT metabolized by CYP1A2 [7]: 0.92
- AUC(0-t) ([8]; MT + CBD (3 + 3) mg/kg): 2540 ng·h/mL
- AUC(0-t) ([8]; MT + Vehicle 3 mg/kg): 602 ng·h/mL
- AUC(0-inf) ([8]; MT + CBD (3 + 3) mg/kg): 2550 ng·h/mL
- AUC(0-inf) ([8]; MT + Vehicle 3 mg/kg): 612 ng·h/mL
- Cmax ([8]; MT + CBD (3 + 3) mg/kg): 1360 ng/mL
- Cmax ([8]; MT + Vehicle 3 mg/kg): 1080 ng/mL
- MRT last ([8]; MT + CBD (3 + 3) mg/kg): 99.6 min
- MRT last ([8]; MT + Vehicle 3 mg/kg): 30 min
- Tmax ([8]; MT + CBD (3 + 3) mg/kg): 42.6 min
- Tmax ([8]; MT + Vehicle 3 mg/kg): 13.2 min
- half-life ([8]; MT + CBD (3 + 3) mg/kg): 55.2 min
- half-life ([8]; MT + Vehicle 3 mg/kg): 19.8 min
- uptake rate of MT, MOCK cells vs transfected cells [9]: no difference
- fraction unbound at 6 h [10]: 0.388
- AUC(0-t) ([11]; male, Sprague-Dawley, rat, in vivo, iv, 1 mg/kg, AUC(0–t), rats, i.v., MT + CBD (1 + 1) mg/kg): 260 ng·h/mL
- MRT last ([11]; male, Sprague-Dawley, rat, in vivo, iv, 1 mg/kg, rats, i.v., MT + CBD (1 + 1) mg/kg): 10.2 min
- bioavailability ([11]; male, Sprague-Dawley, rat, in vivo, po, 5 mg/kg): 20.5%
- AUC(0-t) ([11]; male, Sprague-Dawley, rat, in vivo, po, 5 mg/kg, AUC(0–1h), rats, p.o., MT + CBD (5 + 5) mg/kg): 114 ng·h/mL
- AUC(0-t) ([11]; male, Sprague-Dawley, rat, in vivo, po, 5 mg/kg, AUC(0–1h), rats, p.o., MT + CBD (5 + 20) mg/kg): 65.2 ng·h/mL
- AUC(0-t) ([11]; male, Sprague-Dawley, rat, in vivo, po, 5 mg/kg, AUC(0–1h), rats, p.o., MT + Vehicle 5 mg/kg): 241 ng·h/mL
- AUC(0-t) ([11]; male, Sprague-Dawley, rat, in vivo, po, 5 mg/kg, AUC(0–t), rats, p.o., MT + CBD (5 + 5) mg/kg): 138 ng·h/mL
- AUC(0-t) ([11]; male, Sprague-Dawley, rat, in vivo, po, 5 mg/kg, AUC(0–t), rats, p.o., MT + CBD (5 + 20) mg/kg): 121 ng·h/mL
- AUC(0-t) ([11]; male, Sprague-Dawley, rat, in vivo, po, 5 mg/kg, AUC(0–t), rats, p.o., MT + Vehicle 5 mg/kg): 267 ng·h/mL
- Cmax [11, 15]: 212 ng/mL
- Cmax [11, 16]: 99 ng/mL
- Cmax [11, 17]: 588 ng/mL
- MRT last [11, 15]: 39 min
- MRT last [11, 16]: 79.8 min
- MRT last [11, 17]: 40.2 min
- Tmax [11, 15]: 19.8 min
- Tmax [11, 16]: 8.4 min
- Tmax [11, 17]: 10.2 min
- effect of co-administered MT on pharmacokinetic parameters of CBD ([11]; rats, p.o., CBD 20 mg/kg with MT 0, 5 or 20 mg/kg): does not produce obvious pharmacokinetic-based interactions with CBD
- t1/2 ([11]; rats, p.o., MT + CBD (5 + 5) mg/kg): 0.66 (0.14) h
- t1/2 ([11]; rats, p.o., MT + CBD (5 + 20) mg/kg): 1.80 (0.94) * h
- MT total exposure with CBD, as percent of MT alone ([11]; rats, p.o., high CBD dose): 45%
- AUC of MT reduced by co-administration of CBD ([12]; ABT-treated rats): 2.29 fold
- Cmax of MT reduced by co-administration of CBD ([12]; ABT-treated rats): 2.3 fold
- AUC(0-t) [12, 18]: 8840 ng·h/mL
- Cmax [12, 18]: 2100 ng/mL
- Tmax [12, 18]: 30 min
- half-life [12, 18]: 78.6 min
- fm(CYP1A2), proportion of MT metabolized by CYP1A2 [13]: 0.92
- fraction unbound at 6 h [14]: 0.364

Reference: PMC12845078 (Pharmaceuticals, 2025)
